Experimental data from DBAASP.
Converted amounts (≈) assume the structure as drawn.

Columns and labels:
Assay in all cases: ≥ marks a high value that may be exact or a test limit, other limits are often not marked, values filed in µg/mL are converted to µM
[1] = system: Candida albicans ATCC 10231
[2] = system: Cryptococcus neoformans ATCC 32045
[3] = system: Escherichia coli ATCC 2592
[4] = system: Pseudomonas aeruginosa ATCC 10145
[5] = system: Staphylococcus aureus ATCC 33591
[6] = system: Escherichia coli ATCC 25922
Escherichia coli K88 = system: Escherichia coli K88
[7] = system: Escherichia coli O157:H7 CICC 21530
[8] = system: Lacticaseibacillus rhamnosus 1.0911
[9] = system: Lacticaseibacillus rhamnosus 1.0936
[10] = system: Lacticaseibacillus rhamnosus 1.9021
[11] = system: Lacticaseibacillus rhamnosus 8014
[12] = system: Pseudomonas aeruginosa ATCC 27853
[13] = system: Pseudomonas aeruginosa PAO1
[14] = system: Salmonella enterica subsp. enterica serovar Choleraesuis CVCC 503
[15] = system: Salmonella enterica subsp. enterica serovar Pullorum C79-13
[16] = system: Salmonella enterica subsp. enterica serovar Typhimurium ATCC 14028
[17] = system: Staphylococcus aureus ATCC 29213
[18] = system: Staphylococcus aureus ATCC 43300
[19] = system: Staphylococcus epidermidis ATCC 12228
[20] = system: Streptococcus agalactiae BNCC 185941
Escherichia coli UB1005 = system: Escherichia coli UB1005
[21] = system: Pseudomonas aeruginosa H187
[22] = system: Bacillus amyloliquefaciens ATCC 23842
[23] = system: Bacillus cereus ATCC 14579
[24] = system: Bacillus licheniformis ATCC 14580
[25] = system: Bacillus subtilis ATCC 6051
[26] = system: Enterococcus faecalis 1F-1
[27] = system: Enterococcus faecium 5F-10
[28] = system: Proteus mirabilis ATCC 35659
[29] = system: Salmonella enterica ATCC H9812
[30] = system: Bacillus cereus CMCC 6303
[31] = system: Cronobacter sakazakii ATCC 29544
[32] = system: Listeria monocytogenes CMCC 54004
[33] = system: Salmonella enterica subsp. enterica CMCC 47020
[34] = system: Salmonella enterica subsp. enterica serovar Typhi CMCC 50071
[35] = system: Salmonella enterica subsp. enterica serovar Typhimurium C77-31
[36] = system: Staphylococcus aureus ATCC 25923
[37] = system: Staphylococcus aureus CMCC 26074
[38] = system: Bacillus subtilis KCTC 3068
[39] = system: Escherichia coli KCTC 1682
[40] = system: Pseudomonas aeruginosa KCTC 1637
[41] = system: Salmonella typhimurium KCTC 1926
[42] = system: Staphylococcus aureus KCTC 1621
[43] = system: Staphylococcus epidermidis KCTC 1917

Structure (SMILES): C[C@H](NC(=O)[C@H](Cc1ccccc1)NC(=O)[C@@H](N)CCCCN)C(=O)N[C@@H](CCCCN)C(=O)O [KFAK]
- MIC [1]: > 1010 µM
- MIC [2]: ≥ 1010 µM
- MIC [3]: ≥ 507 µM
- MIC [4]: ≥ 1010 µM
- MIC [5]: ≥ 1010 µM

Structure (SMILES): C[C@H](NC(=O)[C@H](CCCCN)NC(=O)[C@H](CCCCN)NC(=O)[C@H](CCCCN)NC(=O)[C@H](C)NC(=O)[C@H](CCCCN)NC(=O)[C@H](CCCCN)NC(=O)[C@H](CCCCN)NC(=O)[C@H](C)NC(=O)[C@H](CCCCN)NC(=O)[C@H](CCCCN)NC(=O)[C@H](CCCCN)NC(=O)[C@H](C)NC(=O)[C@H](CCCCN)NC(=O)[C@H](CCCCN)NC(=O)[C@H](CCCCN)NC(=O)[C@H](C)NC(=O)[C@H](CCCCN)NC(=O)[C@H](CCCCN)NC(=O)[C@H](CCCCN)NC(=O)[C@H](C)NC(=O)[C@H](CCCCN)NC(=O)[C@H](CCCCN)NC(=O)[C@H](CCCCN)NC(=O)[C@H](C)NC(=O)[C@H](CCCCN)NC(=O)[C@@H](N)CCCCN)C(=O)N[C@@H](CCCCN)C(=O)O [KKAKKKAKKKAKKKAKKKAKKKAKKKAK]
- MIC [1]: > 78 µM
- MIC [2]: 19.6 µM (≈ 63 µg/mL)
- MIC [3]: 13.7 µM (≈ 43.8 µg/mL)
- MIC [4]: ≥ 39 µM

Structure (SMILES): CC(C)C[C@H](NC(=O)CNC(=O)[C@H](Cc1c[nH]c2ccccc12)NC(=O)CNC(=O)[C@H](CC(C)C)NC(=O)[C@H](CC(C)C)NC(=O)[C@H](CCCCN)NC(=O)[C@@H](N)CCCCN)C(=O)N[C@@H](CC(C)C)C(=O)N[C@@H](CCCCN)C(=O)N[C@@H](CCCCN)C(N)=O [KKLLGWGLLKK]
- MIC [6]: > 128 µM
- MIC (Escherichia coli K88): ≥ 64 µM
- MIC [7]: ≥ 128 µM
- MIC [8]: ≥ 128 µM
- MIC [9]: ≥ 128 µM
- MIC [10]: ≥ 128 µM
- MIC [11]: ≥ 128 µM
- MIC [12]: > 128 µM
- MIC [13]: > 128 µM
- MIC [14]: ≥ 128 µM
- MIC [15]: ≥ 64 µM
- MIC [16]: > 128 µM
- MIC [17]: > 128 µM
- MIC [18]: > 128 µM
- MIC [19]: > 128 µM
- MIC [20]: ≥ 128 µM

Structure (SMILES): CC[C@H](C)[C@H](NC(=O)[C@H](Cc1ccccc1)NC(=O)[C@H](CCCCN)NC(=O)[C@H](CCCCN)NC(=O)[C@H](Cc1c[nH]c2ccccc12)NC(=O)[C@@H](N)CCCCN)C(=O)N[C@@H](CCCCN)C(=O)N[C@@H](CCC(=O)O)C(=O)N[C@@H](CC(C)C)C(=O)N[C@@H](CCC(N)=O)C(=O)N[C@@H](CCCCN)C(=O)N[C@H](C(=O)N[C@@H](CC(C)C)C(=O)N[C@@H](C)C(=O)N1CCC[C@H]1C(=O)NCC(=O)NCC(=O)N[C@@H](CC(C)C)C(=O)N[C@@H](CC(C)C)C(=O)N[C@@H](CO)C(=O)N[C@@H](CC(N)=O)C(=O)N[C@H](C(=O)N[C@H](C(=O)N[C@H](C(=O)N[C@@H](CO)C(=O)N[C@@H](CC(C)C)C(=O)O)[C@@H](C)O)C(C)C)[C@@H](C)CC)C(C)C [KWKKFIKELQKVLAPGGLLSNIVTSL]
- MIC (Escherichia coli UB1005): 1.72 µM (≈ 5 µg/mL)
- MIC [21]: 3.43 µM (≈ 10 µg/mL)

Structure (SMILES): CC(C)C[C@H](NC(=O)[C@@H](N)CC(C)C)C(=O)N[C@@H](CO)C(=O)N[C@@H](CCCN=C(N)N)C(=O)N[C@H](C(=O)O)C(C)C [LLSRV]
- MIC [22]: ≥ 218 µM
- MIC [23]: ≥ 218 µM
- MIC [24]: ≥ 218 µM
- MIC [25]: ≥ 218 µM
- MIC [26]: ≥ 218 µM
- MIC [27]: ≥ 218 µM
- MIC [6]: > 218 µM
- MIC [28]: ≥ 218 µM
- MIC [13]: > 218 µM
- MIC [29]: ≥ 218 µM
- MIC [17]: > 218 µM

Structure (SMILES): CC[C@H](C)[C@H](NC(=O)[C@H](CCCN=C(N)N)NC(=O)[C@H](CCCN=C(N)N)NC(=O)[C@H](CCCCN)NC(=O)[C@@H](N)CCCN=C(N)N)C(=O)N[C@H](C(=O)N[C@H](C(=O)N[C@H](C(=O)N[C@@H](CCCN=C(N)N)C(=O)N[C@@H](CCCN=C(N)N)C(=O)N[C@@H](CCCCN)C(=O)N[C@@H](CCCN=C(N)N)C(N)=O)[C@@H](C)CC)C(C)C)C(C)C [RKRRIVVIRRKR]
- MIC [30]: ≥ 128 µM
- MIC [31]: ≥ 256 µM
- MIC (Escherichia coli UB1005): ≥ 256 µM
- MIC [32]: ≥ 32 µM
- MIC [33]: ≥ 256 µM
- MIC [15]: ≥ 256 µM
- MIC [34]: ≥ 256 µM
- MIC [16]: 128 µM (≈ 209 µg/mL)
- MIC [35]: ≥ 256 µM
- MIC [36]: > 256 µM
- MIC [37]: ≥ 256 µM

Structure (SMILES): CC[C@H](C)[C@@H]1NC(=O)[C@H](CCCN=C(N)N)NC(=O)[C@@H](NC(=O)[C@H](CC(C)C)NC(=O)[C@@H](N)CCCN=C(N)N)CSSC[C@@H](C(=O)N[C@@H](CCCN=C(N)N)C(N)=O)NC(=O)[C@H](C(C)C)NC(=O)[C@H](CCCN=C(N)N)NC(=O)[C@H]([C@@H](C)CC)NC(=O)[C@H](C(C)C)NC(=O)[C@H](C(C)C)NC1=O [RLCRIVVIRVCR]
- MIC [30]: ≥ 64 µM
- MIC [38]: 4.21 µM (≈ 6.24 µg/mL)
- MIC [31]: ≥ 256 µM
- MIC [39]: 8.41 µM (≈ 12.5 µg/mL)
- MIC (Escherichia coli UB1005): ≥ 128 µM
- MIC [32]: ≥ 128 µM
- MIC [40]: 16.8 µM (≈ 25 µg/mL)
- MIC [33]: ≥ 128 µM
- MIC [15]: ≥ 256 µM
- MIC [34]: ≥ 64 µM
- MIC [16]: 128 µM (≈ 190 µg/mL)
- MIC [35]: ≥ 256 µM
- MIC [41]: 4.21 µM (≈ 6.24 µg/mL)
- MIC [36]: > 256 µM
- MIC [37]: ≥ 256 µM
- MIC [42]: 4.21 µM (≈ 6.24 µg/mL)
- MIC [43]: 4.21 µM (≈ 6.24 µg/mL)
